PubChem BioAssay AID1259407 (Chemical Carcinogenesis Research Information System (CCRIS), 2018)
Active and inactive are the calls of the source. No rule for the calls is given here.

Test system: CCRIS mutagenicity, Ames/micronucleus/aberration tests
Assay: CCRIS mutagenicity studies
[1] = Test System: AMES SALMONELLA TYPHIMURIUM, Strain/Indicator: TA98, Metabolic Activation: NONE, Method: PREINCUBATION
[2] = Test System: AMES SALMONELLA TYPHIMURIUM, Strain/Indicator: TA98, Metabolic Activation: NONE, Method: STANDARD PLATE
[3] = Test System: AMES SALMONELLA TYPHIMURIUM, Strain/Indicator: TA98, Metabolic Activation: RAT, LIVER, S-9, AROCLOR 1254, Method: STANDARD PLATE
[4] = Test System: AMES SALMONELLA TYPHIMURIUM, Strain/Indicator: TA100, Metabolic Activation: NONE, Method: PREINCUBATION
[5] = Test System: AMES SALMONELLA TYPHIMURIUM, Strain/Indicator: TA100, Metabolic Activation: NONE, Method: STANDARD PLATE
[6] = Test System: AMES SALMONELLA TYPHIMURIUM, Strain/Indicator: TA100, Metabolic Activation: RAT, LIVER, S-9, AROCLOR 1254, Method: STANDARD PLATE
[7] = Test System: AMES SALMONELLA TYPHIMURIUM, Strain/Indicator: TA1535, Metabolic Activation: NONE, Method: PREINCUBATION

CCCCOCCOCCO
mutagenic call (Test System: AMES SALMONELLA TYPHIMURIUM, Strain/Indicator: TA97, Metabolic Activation: HAMSTER, LIVER, S-9, AROCLOR 1254 (10 OR 30%), Method: PREINCUBATION): inactive; negative | mutagenic call (Test System: AMES SALMONELLA TYPHIMURIUM, Strain/Indicator: TA97, Metabolic Activation: NONE, Method: PREINCUBATION): inactive; negative | mutagenic call (Test System: AMES SALMONELLA TYPHIMURIUM, Strain/Indicator: TA97, Metabolic Activation: RAT, LIVER, S-9, AROCLOR 1254 (10 OR 30%), Method: PREINCUBATION): inactive; negative | mutagenic call (Test System: AMES SALMONELLA TYPHIMURIUM, Strain/Indicator: TA98, Metabolic Activation: HAMSTER, LIVER, S-9, AROCLOR 1254 (10 OR 30%), Method: PREINCUBATION): inactive; negative | mutagenic call [1]: inactive; negative | mutagenic call [2]: inactive; negative | mutagenic call (Test System: AMES SALMONELLA TYPHIMURIUM, Strain/Indicator: TA98, Metabolic Activation: RAT, LIVER, S-9, AROCLOR 1254 (10 OR 30%), Method: PREINCUBATION): inactive; negative | mutagenic call [3]: inactive; negative | mutagenic call (Test System: AMES SALMONELLA TYPHIMURIUM, Strain/Indicator: TA100, Metabolic Activation: HAMSTER, LIVER, S-9, AROCLOR 1254 (10 OR 30%), Method: PREINCUBATION): inactive; negative | mutagenic call [4]: inactive; negative | mutagenic call [5]: inactive; negative | mutagenic call (Test System: AMES SALMONELLA TYPHIMURIUM, Strain/Indicator: TA100, Metabolic Activation: RAT, LIVER, S-9, AROCLOR 1254 (10 OR 30%), Method: PREINCUBATION): inactive; negative | mutagenic call [6]: inactive; negative | mutagenic call (Test System: AMES SALMONELLA TYPHIMURIUM, Strain/Indicator: TA1535, Metabolic Activation: HAMSTER, LIVER, S-9, AROCLOR 1254 (10 OR 30%), Method: PREINCUBATION): inactive; negative | mutagenic call [7]: inactive; negative | mutagenic call (Test System: AMES SALMONELLA TYPHIMURIUM, Strain/Indicator: TA1535, Metabolic Activation: NONE, Method: STANDARD PLATE): inactive; negative | mutagenic call (Test System: AMES SALMONELLA TYPHIMURIUM, Strain/Indicator: TA1535, Metabolic Activation: RAT, LIVER, S-9, AROCLOR 1254 (10 OR 30%), Method: PREINCUBATION): inactive; negative | mutagenic call (Test System: AMES SALMONELLA TYPHIMURIUM, Strain/Indicator: TA1535, Metabolic Activation: RAT, LIVER, S-9, AROCLOR 1254, Method: STANDARD PLATE): inactive; negative | mutagenic call (Test System: AMES SALMONELLA TYPHIMURIUM, Strain/Indicator: TA1537, Metabolic Activation: NONE, Method: STANDARD PLATE): inactive; negative | mutagenic call (Test System: AMES SALMONELLA TYPHIMURIUM, Strain/Indicator: TA1537, Metabolic Activation: RAT, LIVER, S-9, AROCLOR 1254, Method: STANDARD PLATE): inactive; negative | mutagenic call (Test System: AMES SALMONELLA TYPHIMURIUM, Strain/Indicator: TA1538, Metabolic Activation: NONE, Method: STANDARD PLATE): inactive; negative | mutagenic call (Test System: AMES SALMONELLA TYPHIMURIUM, Strain/Indicator: TA1538, Metabolic Activation: RAT, LIVER, S-9, AROCLOR 1254, Method: STANDARD PLATE): inactive; negative | mutagenic call (Test System: CHINESE HAMSTER OVARY, Strain/Indicator: CHO-K1-BH4 (HGPRT)/6-THIOGUANINE, Metabolic Activation: NONE): inactive; negative | mutagenic call (Test System: CHINESE HAMSTER OVARY, Strain/Indicator: CHO-K1-BH4 (HGPRT)/THIOGUANINE, Metabolic Activation: RAT, LIVER, S-9, AROCLOR 1254): inactive; negative | mutagenic call (Test System: MOUSE LYMPHOMA, Strain/Indicator: L5178Y (TK+/TK-), Metabolic Activation: NONE, Method: SUSPENSION/PLATE): active; positive | mutagenic call (Test System: MOUSE LYMPHOMA, Strain/Indicator: L5178Y (TK+/TK-), Metabolic Activation: RAT, LIVER, S-9, AROCLOR 1254, Method: SUSPENSION/PLATE): inactive; negative | mutagenic call (Test System: UDS RAT HEPATOCYTES, Strain/Indicator: THY INCORP, Metabolic Activation: NONE, Method: AUTORADIOGRAPHY): inactive; negative

O=c1c2c(c3c(ccc4cc5c(ccc6ccccc65)[nH]c43)c1O)O2
mutagenic call (Test System: AMES SALMONELLA TYPHIMURIUM, Strain/Indicator: TA98, Metabolic Activation: RAT, LIVER, AROCLOR 1254, NADPH GENERATING SYSTEM, Method: STANDARD PLATE): active; positive | mutagenic call (Test System: AMES SALMONELLA TYPHIMURIUM, Strain/Indicator: TA100, Metabolic Activation: RAT, LIVER, AROCLOR 1254, NADPH GENERATING SYSTEM, Method: STANDARD PLATE): active; positive | mutagenic call (Test System: CHINESE HAMSTER V-79, Strain/Indicator: V-79/8-AZAGUANINE, Method: STANDARD PLATE): active; positive

OC1c2ccc3c(c2C2OC2C1O)-c1cccc2cccc-3c12 (stereo unspecified)
mutagenic call (Test System: AMES SALMONELLA TYPHIMURIUM, Strain/Indicator: TA97A, Metabolic Activation: NONE, Method: PREINCUBATION): active; positive | mutagenic call [1]: active; positive | mutagenic call [4]: active; positive

O=C(O)C1=NN(c2ccc(S(=O)(=O)O)cc2)C(=O)C1N=Nc1ccc(S(=O)(=O)O)cc1 (stereo unspecified)
mutagenic call [2]: inactive; negative | mutagenic call (Test System: AMES SALMONELLA TYPHIMURIUM, Strain/Indicator: TA98, Metabolic Activation: RAT LIVER S-9, AROCLOR 1254, Method: STANDARD PLATE): inactive; negative | mutagenic call [5]: inactive; negative | mutagenic call (Test System: AMES SALMONELLA TYPHIMURIUM, Strain/Indicator: TA100, Metabolic Activation: RAT LIVER S-9, AROCLOR 1254, Method: STANDARD PLATE): inactive; negative | mutagenic call (Test System: Mouse lymphoma, Strain/Indicator: L5178Y (tk+/tk-), Metabolic Activation: None, Method: Suspension/plate): inactive; negative | mutagenic call (Test System: Mouse lymphoma, Strain/Indicator: L5178Y (tk+/tk-), Metabolic Activation: Rat, Liver, S-9, Aroclor 1254, Method: Suspension/plate): inactive; negative

O=S1(=O)CC=CC1
mutagenic call (End Point: IN VITRO CHROMOSOMAL ABERRATIONS, Test System: CHO-LB CELLS, Metabolic Activation: NONE): inactive; negative | mutagenic call (End Point: IN VITRO CHROMOSOMAL ABERRATIONS, Test System: CHO-LB CELLS, Metabolic Activation: RAT, LIVER, S-9, AROCLOR 1254): inactive; negative | mutagenic call (Test System: AMES SALMONELLA TYPHIMURIUM, Strain/Indicator: TA98, Metabolic Activation: HAMSTER, LIVER, S-9, AROCLOR 1254 (10%), Method: PREINCUBATION): inactive; negative | mutagenic call [1]: inactive; negative | mutagenic call (Test System: AMES SALMONELLA TYPHIMURIUM, Strain/Indicator: TA98, Metabolic Activation: RAT, LIVER, S-9, AROCLOR 1254 (10%), Method: PREINCUBATION): inactive; negative | mutagenic call (Test System: AMES SALMONELLA TYPHIMURIUM, Strain/Indicator: TA100, Metabolic Activation: HAMSTER, LIVER, S-9, AROCLOR 1254 (10%), Method: PREINCUBATION): inactive; negative | mutagenic call [4]: inactive; negative | mutagenic call (Test System: AMES SALMONELLA TYPHIMURIUM, Strain/Indicator: TA100, Metabolic Activation: RAT, LIVER, S-9, AROCLOR 1254 (10%), Method: PREINCUBATION): inactive; negative | mutagenic call (Test System: AMES SALMONELLA TYPHIMURIUM, Strain/Indicator: TA1535, Metabolic Activation: HAMSTER, LIVER, S-9, AROCLOR 1254 (10%), Method: PREINCUBATION): inactive; negative | mutagenic call [7]: inactive; negative | mutagenic call (Test System: AMES SALMONELLA TYPHIMURIUM, Strain/Indicator: TA1535, Metabolic Activation: RAT, LIVER, S-9, AROCLOR 1254 (10%), Method: PREINCUBATION): inactive; negative | mutagenic call (Test System: AMES SALMONELLA TYPHIMURIUM, Strain/Indicator: TA1537, Metabolic Activation: HAMSTER, LIVER, S-9, AROCLOR 1254 (10%), Method: PREINCUBATION): inactive; negative | mutagenic call (Test System: AMES SALMONELLA TYPHIMURIUM, Strain/Indicator: TA1537, Metabolic Activation: NONE, Method: PREINCUBATION): inactive; negative | mutagenic call (Test System: AMES SALMONELLA TYPHIMURIUM, Strain/Indicator: TA1537, Metabolic Activation: RAT, LIVER, S-9, AROCLOR 1254 (10%), Method: PREINCUBATION): inactive; negative

CC(=O)Nc1ccccc1C
mutagenic call [2]: inactive; negative | mutagenic call [3]: inactive; negative | mutagenic call [5]: inactive; negative | mutagenic call [6]: inactive; negative

Cc1cc2c(C)c3ccccc3c(C)c2cc1C
mutagenic call [2]: active; positive | mutagenic call [3]: active; positive | mutagenic call [5]: inactive; negative | mutagenic call [6]: active; positive
